Data taken from patent publication US8952024B2, “Herbicidal pyrimidone derivatives” (E I du Pont de Nemours and Company, priority 2009, dated 2015).

Key:
Format in all cases: in vivo
[1] = tested on: morningglory (Ipomoea spp.); test: Test A pre-/postemergence plant response
Method in brief: (§1)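 Injury scores (0, no effect; 100, complete control) come from visual comparison with untreated controls roughly ten days post-treatment. Test chemicals in a surfactant-containing non-phytotoxic solvent were applied as a directed soil spray preemergence and to one- to two-leaf seedlings postemergence.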

[2] = tested on: large crabgrass (Digitaria sanguinalis); test: Test A pre-/postemergence plant response
Method in brief: as §1

[3] = tested on: wheat (Triticum aestivum); test: Test A pre-/postemergence plant response
Method in brief: as §1

[4] = tested on: velvetleaf (Abutilon theophrasti); test: Test A pre-/postemergence plant response
Method in brief: as §1

[5] = tested on: downy bromegrass (Bromus tectorum); test: Test B pre-/postemergence plant response
Method in brief: (§2)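 Visual injury, 0–100 scale (100 = complete control), rated against controls after 13 to 15 days in greenhouse. Pre-emergence: seeds in loam/sand soil, treated at planting. Post-emergence: 1- to 4-leaf plants (2 to 18 cm) in peat/vermiculite medium. Compounds formulated in non-phytotoxic solvent with surfactant.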

[6] = tested on: green foxtail (Setaria viridis); test: Test B pre-/postemergence plant response
Method in brief: as §2

[7] = tested on: cocklebur (Xanthium strumarium); test: Test B pre-/postemergence plant response
Method in brief: as §2

[8] = tested on: morningglory (Ipomoea coccinea); test: Test B pre-/postemergence plant response
Method in brief: as §2

[9] = tested on: giant foxtail (Setaria faberii); test: Test B pre-/postemergence plant response
Method in brief: as §2

[10] = tested on: kochia (Kochia scoparia); test: Test B pre-/postemergence plant response; details: Preemergence
Method in brief: as §2

[11] = tested on: pigweed (Amaranthus retroflexus); test: Test B pre-/postemergence plant response
Method in brief: as §2

[12] = tested on: goosegrass (Eleusine indica); test: Test B pre-/postemergence plant response
Method in brief: as §2

[13] = tested on: wheat (Triticum aestivum); test: Test B pre-/postemergence plant response
Method in brief: as §2

[14] = Postemergence, 125 g ai/ha, visual injury, 0 to 100 scale (0 no effect, 100 complete control), approx. ten days
[15] = Postemergence, 500 g ai/ha, 0 to 100 scale, 0 = no effect, 100 = complete control, approx. ten days
[16] = Preemergence, 125 g ai/ha, 0 to 100 scale, 0 = no effect, 100 = complete control
[17] = Preemergence, 500 g ai/ha, visual injury, 0 to 100 scale (0 no effect, 100 complete control), approx. ten days
[18] = 250 g ai/ha, Preemergence, 0 to 100 scale
[19] = Postemergence, 31 g ai/ha, scale 0 to 100 (0 no effect, 100 complete control)
[20] = Postemergence, 62 g ai/ha, scale 0 (no effect) to 100 (complete control), 13 to 15 days
[21] = Postemergence, 125 g ai/ha, visual rating after 13 to 15 days, scale 0 (no effect) to 100 (complete control)
[22] = Postemergence, 250 g ai/ha, scale 0 to 100
[23] = Preemergence, 31 g ai/ha, scale 0 to 100 (0 no effect, 100 complete control)
[24] = Preemergence, 62 g ai/ha, scale 0 to 100, 0 no effect, 100 complete control
[25] = Preemergence, 125 g ai/ha, 0 to 100 scale

O=C1CCCC([O-])=C1C(=O)c1cnc(-c2ccccc2)n(-c2ccccc2)c1=O.[K+] [Compound 14]
Morningglory plant response rating [1, 14]: 20
Plant response rating, Morningglory [1, 15]: 100
Plant response rating, Morningglory [1, 16]: 10
Plant response rating, Morningglory [1, 17]: 60
Crabgrass, Large plant response rating [2, 14]: 30
Plant response rating, Crabgrass, Large [2, 15]: 90
Plant response rating, Crabgrass, Large [2, 16]: 30
Plant response rating, Crabgrass, Large [2, 17]: 90
Wheat plant response rating [3, 14]: 0
Plant response rating, Wheat [3, 15]: 0
Plant response rating, Wheat [3, 16]: 0
Plant response rating, Wheat [3, 17]: 0
Velvetleaf plant response rating [4, 14]: 100
Plant response rating, Velvetleaf [4, 15]: 100
Plant response rating, Velvetleaf [4, 16]: 90
Plant response rating, Velvetleaf [4, 17]: 100
Plant response rating, Bromegrass, Downy [5, 18]: 0
Plant response rating, Bromegrass, Downy [5, 19]: 10
Plant response rating, Bromegrass, Downy [5, 20]: 30
Plant response rating, Bromegrass, Downy [5, 21]: 50
Bromegrass, Downy plant response rating [5, 22]: 70
Plant response rating, Bromegrass, Downy [5, 23]: 0
Plant response rating, Bromegrass, Downy [5, 24]: 0
Bromegrass, Downy plant response rating [5, 25]: 0
Plant response rating, Foxtail, Green [6, 18]: 60
Plant response rating, Foxtail, Green [6, 19]: 45
Plant response rating, Foxtail, Green [6, 20]: 45
Plant response rating, Foxtail, Green [6, 21]: 50
Foxtail, Green plant response rating [6, 22]: 85
Plant response rating, Foxtail, Green [6, 23]: 0
Plant response rating, Foxtail, Green [6, 24]: 0
Foxtail, Green plant response rating [6, 25]: 10
Plant response rating, Cocklebur [7, 18]: 95
Plant response rating, Cocklebur [7, 19]: 80
Plant response rating, Cocklebur [7, 20]: 90
Plant response rating, Cocklebur [7, 21]: 90
Cocklebur plant response rating [7, 22]: 98
Plant response rating, Cocklebur [7, 23]: 0
Plant response rating, Cocklebur [7, 24]: 85
Cocklebur plant response rating [7, 25]: 85
Plant response rating, Morningglory [8, 18]: 100
Plant response rating, Morningglory [8, 19]: 70
Plant response rating, Morningglory [8, 20]: 70
Plant response rating, Morningglory [8, 21]: 80
Morningglory plant response rating [8, 22]: 95
Plant response rating, Morningglory [8, 23]: 100
Plant response rating, Morningglory [8, 24]: 100
Morningglory plant response rating [8, 25]: 100
Plant response rating, Foxtail, Giant [9, 18]: 90
Plant response rating, Foxtail, Giant [9, 19]: 50
Plant response rating, Foxtail, Giant [9, 20]: 70
Plant response rating, Foxtail, Giant [9, 21]: 80
Foxtail, Giant plant response rating [9, 22]: 95
Plant response rating, Foxtail, Giant [9, 23]: 0
Plant response rating, Foxtail, Giant [9, 24]: 10
Foxtail, Giant plant response rating [9, 25]: 75
Plant response rating, Kochia ([10]; 250 g ai/ha, 0 to 100 scale): 100
Plant response rating, Kochia ([10]; 31 g ai/ha, scale 0 to 100 (0 no effect, 100 complete control)): 85
Plant response rating, Kochia ([10]; 62 g ai/ha, scale 0 to 100, 0 no effect, 100 complete control): 100
Kochia plant response rating ([10]; 125 g ai/ha, 0 to 100 scale): 100
Plant response rating, Pigweed [11, 18]: 100
Plant response rating, Pigweed [11, 19]: 80
Plant response rating, Pigweed [11, 20]: 80
Plant response rating, Pigweed [11, 21]: 80
Pigweed plant response rating [11, 22]: 98
Plant response rating, Pigweed [11, 23]: 90
Plant response rating, Pigweed [11, 24]: 98
Pigweed plant response rating [11, 25]: 100
Plant response rating, Goosegrass [12, 18]: 100
Plant response rating, Goosegrass [12, 19]: 80
Plant response rating, Goosegrass [12, 20]: 80
Plant response rating, Goosegrass [12, 21]: 80
Goosegrass plant response rating [12, 22]: 85
Plant response rating, Goosegrass [12, 23]: 70
Goosegrass plant response rating [12, 25]: 98
Plant response rating, Wheat [13, 18]: 0
Plant response rating, Wheat [13, 19]: 0
Plant response rating, Wheat [13, 20]: 0
Plant response rating, Wheat [13, 21]: 0
Wheat plant response rating [13, 22]: 20
Plant response rating, Wheat [13, 23]: 0
Plant response rating, Wheat [13, 24]: 0
Wheat plant response rating [13, 25]: 0
